In patent US5137811A, “Method for diagnosing periodontal diseases with a substrate specific for aminopeptidase activity of periodontopathic bacteria” (Sunstar Kabushiki Kaisha, priority 1986, dated 1992):
Where a SMILES comes first, the peptide text is derived from it. The star is where a group is joined. pNA = O=[N+]([O-])c1ccc(N*)cc1; βNA = c1ccc2cc(N*)ccc2c1

Experiments:
[1] = test system: periodontopathic bacteria specific aminopeptidase activity; assay: Hydrolytic activity of saliva supernatant (Experiment 7); format: biochemical; details: 37° C. for 4 hours, Table 7
Experimental: (§1) Specimens of gingival crevicular fluid were collected with paper points from five subjects who were considered to be healthy from their clinical state, six subjects with gingivitis and six subjects with periodontitis. Each specimen was dispersed in Ringer's solution (1.5 ml), and the relative amount of spirochete to total bacteria: [formula] was determined with a phase contrast microscope. Further, the Ringer's solution (0.3 ml) was tested for hydrolytic activity using the substrate solution prepared in the same manner as described in Experiment 1. As substrates, there were used compounds of the formula [1], i.e., N-benzoylvalyl-glycyl-arginine-β-naphthylamide (BzVGR) and N-carbobenzoxy-valyl-glycyl-arginine-β-naphthylamide (CxVGR) were used.
(§2) A saliva mixture was collected from a group consisting of ten healthy subjects and centrifuged to obtain a supernatant. Likewise, centrifuged supernatants were obtained from a group of ten subjects with adult periodontitis and a group of four localized juvenile periodontitis. The supernatant was used as a specimen and its hydrolytic activity was determined according to the same manner as described in Experiment 4 except that the reaction was carried out at 37° C. for 4 hours. As the substrates, there were used N-carbobenzoxy-valyl-glycyl-arginine-p-nitrophenol (CxVGR-pNP), N-carbobenzoxy-valyl-glycylarginine-4-methoxy-2-naphthylamide (CxVGR-4NA) and N-carbobenzoxy-valyl-glycyl-arginine-β-naphthylamide (CxVGR-βNA). Color was developed by using lN sodium hydroxide for CxVGR-pNP and Fast Blue BB for CxVGR-4NA and CxVGR-βNA.

[2] = test system: periodontopathic bacteria specific aminopeptidase activity; assay: Hydrolytic activity of saliva supernatant (Experiment 8); format: biochemical; details: 37° C. for 4 hours, Table 8
Experimental: as §2
According to the same manner as described in Experiment 7, hydrolytic activity was tested by using lysylproline-p-nitroanilide (KP-pNA), lysyl-proline-4-methoxy-2-naphthylamide (KP-4NA) and lysyl-proline-β-naphthylamide (KP-βNA)as the substrates. Color was developed by using lN sodium hydroxide for KP-pNA and Fast Blue BB for KP-4-NA and KP-βNA.

[3] = test system: periodontopathic bacteria specific aminopeptidase activity; assay: Hydrolytic activity of saliva supernatant, substrates alone or in combination (Experiment 9); format: biochemical; details: 37° C. for 4 hours, Table 9
Experimental: as §2
According to the same manner as described in Experiment 7, hydrolytic activity was tested by using N-carbobenzoxy-valyl-glycyl-arginine-β-naphthylamide (CxVGR-βNA), N-benzoyl-arginyl-glycyl-phenylalanyl-proline-β-naphthylamide (BzRGFP-βNA), N-carbobenzoxy-valyl-glycylarginine-p-nitrophenol (CxVGR-pNP) and N-benzoyl-arginylglycyl-phenylalanyl-proline-p-nitrophenol (BzRGFP-pNP) alone or in combination as the substrates.

[4] = test system: Actinobacillus actinomycetemcomitans; assay: Hydrolytic activity of cell suspension on aminopeptidase substrates (Experiment 2); format: cell-based; details: four strains, Table 2
Experimental: (§3) The strains of Treponema were anaerobically cultivated using TYGVS media at 37° C. for 7 days, while other bacterial strains were cultivated using brain heart infusion broth at 37° C. for 48 to 72 hours. Each culture was diluted to obtain a bacterial cell suspension, the absorption at 660 nm of which was 1.0.
(§4) Substrate compounds for aminopeptidase enzyme having various color developing groups derived from β-naphthylamine were dissolved in 0.1M Tris-HCl buffer (pH 7.0) at the concentration of 0.2 mM to obtain substrate solutions.
(§5) To the substrate solution (1.5 ml) was added the above cell suspension (0.3 ml) and reacted at 37° C. for 60 minutes. After completion of the reaction, a coloring reagent [prepared by dissolving diazonium salt of Garnet GBC in 1M acetate buffer (containing 10% Tween 20, pH: 4.2) at the concentration of 0.5 mg/ml] was added and, after 15 minutes, the absorption at 525 nm was determined with a spectrophotometer.
(§6) On the basis of the average amount of released β-naphthylamine in each strain, the hydrolytic activity was expressed as follows: […]
(§7) According to the same manner as described in Experiment 1, periodontopathic bacteria specific aminopeptidase activity was tested by using four strains of Treponema denticola, five strains of B. gingivalis, three strains of B. intermedius, two strains of B. melaninogenicus, two strains of Actinomyces israelli, four strains of Actinobacillus actinomycetemcomitans and three strains of Fusobacterium nucleatum. Abbreviations used in Table 2 mean the following substrate compounds.

Actinomyces israelli [5] = assay: as above; format: cell-based; details: two strains, Table 2
Experimental: as §3, §4, §5, §6, §7

B. corporis = assay: as above; format: cell-based; details: Table 2
Experimental: as §3, §4, §5, §6, §7

Treponema denticola [6] = assay: as above; format: cell-based; details: four strains, Table 2
Experimental: as §3, §4, §5, §6, §7

B. melaninogenicus = assay: as above; format: cell-based; details: two strains, Table 2
Experimental: as §3, §4, §5, §6, §7

B. denticola = assay: as above; format: cell-based; details: Table 2
Experimental: as §3, §4, §5, §6, §7

B. gingivalis [7] = assay: as above; format: cell-based; details: five strains, Table 2
Experimental: as §3, §4, §5, §6, §7

B. intermedius = assay: as above; format: cell-based; details: three strains, Table 2
Experimental: as §3, §4, §5, §6, §7

Fusobacterium nucleatum [8] = assay: as above; format: cell-based; details: three strains, Table 2
Experimental: as §3, §4, §5, §6, §7

[9] = test system: periodontopathic bacteria specific aminopeptidase activity; assay: Hydrolytic activity of gingival crevicular fluid specimens, visually evaluated (Experiment 5); format: biochemical; design: key: -: orange; +: dark orange; ++: brown; +++: dark brown
Experimental: as §4, §5, §1
In table 4, hydrolytic activity was visually evaluated and expressed as follows: […]
According to the same manner as described in Experiment 4, hydrolytic activity was tested by using the compounds of the formula [2], i.e., lysyl-proline-β-naphthylamide (KP) and N-carbobenzoxy-prolyl-alanyl-glycylproline-β-naphthylamide (CxPAGP) as the substrates.

[10] = test system: Actinobacillus actinomycetemcomitans; assay: Hydrolytic activity of oral anaerobe cell suspension on aminopeptidase substrates (Experiment 1); format: cell-based; details: four strains, substrate 0.2 mM, pH 7.0, 37° C., 60 minutes, Table 1
Experimental: (§8) Oral anaerobes, i.e., four strains of Treponema denticola, five strains of B. gingivalis, four strains of Actinobacillus actinomycetemcomitans, four strains of Capnocytophaga sp. and three strains of Fusobacterium nucleatum were tested for hydrolytic activity to the substrate of aminopeptidase enzyme as follows.
as §3, §4, §5, §6

Bacteroides gingivalis = assay: as above; format: cell-based; details: five strains, substrate 0.2 mM, pH 7.0, 37° C., 60 minutes, Table 1
Experimental: as §8, §3, §4, §5, §6

Treponema denticola [11] = assay: as above; format: cell-based; details: four strains, substrate 0.2 mM, pH 7.0, 37° C., 60 minutes, Table 1
Experimental: as §8, §3, §4, §5, §6

Capnocytophaga sp. = assay: as above; format: cell-based; details: four strains, substrate 0.2 mM, pH 7.0, 37° C., 60 minutes, Table 1
Experimental: as §8, §3, §4, §5, §6

Fusobacterium nucleatum [12] = assay: as above; format: cell-based; details: three strains, substrate 0.2 mM, pH 7.0, 37° C., 60 minutes, Table 1
Experimental: as §8, §3, §4, §5, §6

[13] = test system: Actinobacillus actinomycetemcomitans; assay: Hydrolytic activity of cell suspension, substrates alone or in combination (Experiment 3); format: cell-based; details: four strains, Table 3
Experimental: as §3, §4, §5, §6
(§9) According to the same manner as described in Experiment 1, periodontopathic bacteria specific aminopeptidase activity was tested by using four strains of Treponema denticola, five strains of B. gingivalis, four strains of Actinobacillus actinomycetemcomitans, two strains of Actinomyces israelli and three strains of Fusobacterium nucleatum. Abbreviations in Table 3 are the same as those in Tables 1 and 2. Hydrolytic activity "+++" means "40≤release amount<80 nmol/ml" and "++++" means "release amount≥80 nmol/ml".

Actinomyces israelli [14] = assay: as above; format: cell-based; details: two strains, Table 3
Experimental: as §3, §4, §5, §6, §9

Treponema denticola [15] = assay: as above; format: cell-based; details: four strains, Table 3
Experimental: as §3, §4, §5, §6, §9

B. gingivalis [16] = assay: as above; format: cell-based; details: five strains, Table 3
Experimental: as §3, §4, §5, §6, §9

Fusobacterium nucleatum [17] = assay: as above; format: cell-based; details: three strains, Table 3
Experimental: as §3, §4, §5, §6, §9

[18] = Localized juvenile periodontitis subjects

Compound: COc1cc(NC(=O)[C@H](CCCNC(=N)N)NC(=O)CNC(=O)[C@@H](NC(=O)OCc2ccccc2)C(C)C)cc2ccccc12 [CxVGR-4NA, N-carbobenzoxy-valyl-glycylarginine-4-methoxy-2-naphthylamide]
- hydrolytic activity ([1]; Adult Periodontitis subjects): 34.6 ± 8.9 nmol/mL
- hydrolytic activity ([1]; Healthy subjects): 18.0 ± 10.8 nmol/mL
- hydrolytic activity [1, 18]: 32.3 ± 8.9 nmol/mL

Compound: COc1cc(NC(=O)[C@@H]2CCCN2C(=O)[C@@H](N)CCCCN)cc2ccccc12 [KP-4NA, lysyl-proline-4-methoxy-2-naphthylamide]
- hydrolytic activity ([2]; Adult Periodontitis subjects): 35.5 ± 10.1 nmol/mL
- hydrolytic activity ([2]; Healthy subjects): 16.0 ± 10.8 nmol/mL
- hydrolytic activity [2, 18]: 32.3 ± 8.9 nmol/mL

Compound: N-carbobenzoxy-valyl-glycyl-arginine-p-nitrophenol [CxVGR-pNP]
- hydrolytic activity ([3]; Adult Periodontitis subjects): 33.5 ± 11.5 nmol/mL
- hydrolytic activity ([3]; Healthy subjects): 14.0 ± 7.9 nmol/mL
- hydrolytic activity [3, 18]: 28.8 ± 9.1 nmol/mL
- hydrolytic activity ([1]; Adult Periodontitis subjects): 34.0 ± 9.7 nmol/mL
- hydrolytic activity ([1]; Healthy subjects): 17.0 ± 11.4 nmol/mL
- hydrolytic activity [1, 18]: 32.5 ± 9.6 nmol/mL

Compound: NCCCC[C@H](N)C(=O)N1CCC[C@H]1C(=O)Nc1ccc2ccccc2c1 [KP, lysyl-proline-β-naphthylamide] (H-Lys-Pro-βNA)
- hydrolytic activity (average amount of released β-naphthylamine) [4]: - (release amount<5 nmol/ml)
- hydrolytic activity (average amount of released β-naphthylamine) (Actinomyces israelli [5]): - (release amount<5 nmol/ml)
- hydrolytic activity (average amount of released β-naphthylamine) (B. corporis): ++ (20 ≤release amount<40 nmol/ml)
- hydrolytic activity (average amount of released β-naphthylamine) (Treponema denticola [6]): ++ (20 ≤release amount<40 nmol/ml)
- hydrolytic activity (average amount of released β-naphthylamine) (B. melaninogenicus): ++ (20 ≤release amount<40 nmol/ml)
- hydrolytic activity (average amount of released β-naphthylamine) (B. denticola): ++ (20 ≤release amount<40 nmol/ml)
- hydrolytic activity (average amount of released β-naphthylamine) (B. gingivalis [7]): +++ (release amount≥40 nmol/ml)
- hydrolytic activity (average amount of released β-naphthylamine) (B. intermedius): ++ (20 ≤release amount<40 nmol/ml)
- hydrolytic activity (average amount of released β-naphthylamine) (Fusobacterium nucleatum [8]): - (release amount<5 nmol/ml)
- hydrolytic activity ([2]; Adult Periodontitis subjects): 36.2 ± 9.9 nmol/mL
- hydrolytic activity ([2]; Healthy subjects): 16.1 ± 10.3 nmol/mL
- hydrolytic activity [2, 18]: 33.4 ± 10.0 nmol/mL
- hydrolytic activity, visually evaluated ([9]; Gingivitis subject 1 (spirochete 7.3 %)): +
- hydrolytic activity, visually evaluated ([9]; Gingivitis subject 2 (spirochete 16.7 %)): +
- hydrolytic activity, visually evaluated ([9]; Gingivitis subject 3 (spirochete 20.5 %)): ++
- hydrolytic activity, visually evaluated ([9]; Gingivitis subject 4 (spirochete 6.8 %)): -
- hydrolytic activity, visually evaluated ([9]; Gingivitis subject 5 (spirochete 7.3 %)): -
- hydrolytic activity, visually evaluated ([9]; Gingivitis subject 6 (spirochete 14.4 %)): +
- hydrolytic activity, visually evaluated ([9]; Healthy subject 1 (spirochete 0.1 %)): -
- hydrolytic activity, visually evaluated ([9]; Healthy subject 2 (spirochete 2.5 %)): +
- hydrolytic activity, visually evaluated ([9]; Healthy subject 3 (spirochete 1.1 %)): -
- hydrolytic activity, visually evaluated ([9]; Healthy subject 4 (spirochete 0.6 %)): -
- hydrolytic activity, visually evaluated ([9]; Healthy subject 5 (spirochete 1.3 %)): -
- hydrolytic activity, visually evaluated ([9]; Periodontitis subject 1 (spirochete 45.2 %)): +++
- hydrolytic activity, visually evaluated ([9]; Periodontitis subject 2 (spirochete 30.3 %)): +++
- hydrolytic activity, visually evaluated ([9]; Periodontitis subject 3 (spirochete 34.6 %)): +++
- hydrolytic activity, visually evaluated ([9]; Periodontitis subject 4 (spirochete 21.2 %)): +++
- hydrolytic activity, visually evaluated ([9]; Periodontitis subject 5 (spirochete 40.3 %)): +++
- hydrolytic activity, visually evaluated ([9]; Periodontitis subject 6 (spirochete 35.1 %)): +++

Compound: N=C(N)NCCC[C@H](NC(=O)CN)C(=O)Nc1ccc2ccccc2c1 [GR, glycyl-arginine-β-naphthylamide] (H-Gly-Arg-βNA)
- hydrolytic activity (average amount of released β-naphthylamine) [10]: - (release amount<5 nmol/ml)
- hydrolytic activity (average amount of released β-naphthylamine) (Bacteroides gingivalis): ++ (20 ≤release amount<40 nmol/ml)
- hydrolytic activity (average amount of released β-naphthylamine) (Treponema denticola [11]): + (10 ≤release amount<20 nmol/ml)
- hydrolytic activity (average amount of released β-naphthylamine) (Capnocytophaga sp.): ± (5 ≤release amount<10 nmol/ml)
- hydrolytic activity (average amount of released β-naphthylamine) (Fusobacterium nucleatum [12]): - (release amount<5 nmol/ml)
- hydrolytic activity (release amount) [13]: - (release amount<5 nmol/ml)
- hydrolytic activity (release amount) (Actinomyces israelli [14]): - (release amount<5 nmol/ml)
- hydrolytic activity (release amount) (Treponema denticola [15]): + (10 ≤release amount<20 nmol/ml)
- hydrolytic activity (release amount) (B. gingivalis [16]): ++ (20 ≤release amount<40 nmol/ml)
- hydrolytic activity (release amount) (Fusobacterium nucleatum [17]): - (release amount<5 nmol/ml)

Compound: N-benzoyl-arginylglycyl-phenylalanyl-proline-p-nitrophenol [BzRGFP-pNP]
- hydrolytic activity ([3]; Adult Periodontitis subjects): 25.6 ± 8.4 nmol/mL
- hydrolytic activity ([3]; Healthy subjects): 13.3 ± 4.9 nmol/mL
- hydrolytic activity [3, 18]: 21.8 ± 7.8 nmol/mL

Compound: NCCCC[C@H](N)C(=O)N1CCC[C@H]1C(=O)Nc1ccc([N+](=O)[O-])cc1 [KP-pNA, lysylproline-p-nitroanilide] (H-Lys-Pro-pNA)
- hydrolytic activity ([2]; Adult Periodontitis subjects): 34.3 ± 9.8 nmol/mL
- hydrolytic activity ([2]; Healthy subjects): 15.0 ± 9.4 nmol/mL
- hydrolytic activity [2, 18]: 31.5 ± 9.7 nmol/mL
